Reference: patent US20090197872A1 (priority 2006, published 2009)
Counter-ions that a name gives are not always drawn.

Biological target: T1, α7-subtype of nicotinic receptors (Rattus norvegicus, UniProt Q05941)
T1 construct: from tissue; host or cells: rat brain
Test: biochemical
Conditions: read-out: Inhibition of 3H-α-Bungarotoxine Binding IC50

T1 sequence (Q05941 23-502): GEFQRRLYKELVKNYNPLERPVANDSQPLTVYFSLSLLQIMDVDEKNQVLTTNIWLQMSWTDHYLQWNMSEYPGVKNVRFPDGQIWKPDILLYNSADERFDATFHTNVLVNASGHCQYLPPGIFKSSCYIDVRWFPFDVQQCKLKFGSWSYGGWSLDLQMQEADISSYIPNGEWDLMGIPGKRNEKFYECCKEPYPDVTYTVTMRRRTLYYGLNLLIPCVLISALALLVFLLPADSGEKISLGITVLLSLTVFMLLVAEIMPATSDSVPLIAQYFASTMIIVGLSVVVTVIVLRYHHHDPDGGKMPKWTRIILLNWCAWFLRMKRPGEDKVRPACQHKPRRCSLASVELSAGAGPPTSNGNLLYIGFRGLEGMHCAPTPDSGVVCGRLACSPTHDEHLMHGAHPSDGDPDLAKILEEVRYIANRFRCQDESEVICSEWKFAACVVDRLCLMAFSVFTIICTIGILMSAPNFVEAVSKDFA

`O=C(Nc1cnc(N2CCN3CCC2CC3)nc1)Oc1ccccc1` [Compound A2, [2-(1,4-Diaza-bicyclo[3.2.2]non-4-yl)-pyrimidin-5-yl]-carbamic Acid Phenyl Ester Hydrochloric Acid Salt] was tested, and the IC50 was under 0.3 µM.
